Reference: patent US20240075073A1, “TREATING OPTIC NEURITIS WITH INDUCED PLURIPOTENT STEM CELL-DERIVED OLIGODENDROCYTE PRECURSOR CELLS” (Mayo Foundation for Medical Education and Research, priority 2016, published 2024)
Entries after “also recorded” stand apart in the source; their conditions may differ.

Tests used:
[1] = tested on: optic nerve of cuprizone-fed mice; assay: Visual evoked potentials (VEP) in cuprizone-fed mice with or without OPC transplant; type: in vivo
Experimental: (§1) Cuprizone is a copper chelator, which causes apoptosis of mature oligodendroglia, followed by microglial recruitment, and phagocytosis of myelin. Demyelination was induced by feeding mice a diet containing 0.3% cuprizone for 9 weeks. […] Peak demyelination occurred at 6-7 weeks with spontaneous remyelination occurring 2-4 weeks after transition to regular diet. Efficacy of OPC transplants upon reintroduction of regular diet was evaluated. Assessment of remyelination following transplant was performed as described elsewhere (Deb et al., PLoS One, 5:e12478 (2010)). Briefly, semi-thin sections of optic nerves were stained with para-phenylenediamine, imaged at 100× magnification following a predetermined sampling scheme, and analyzed using automated ImageJ macros to measure myelinated fibers.
Maintaining a sterile field, 1.0 μL of media containing >10^4 OPCs were injected into the vitreous humor of anesthetized mice, using a custom 34-gauge needle mounted on a 5 μL Hamilton syringe. Despite the small dimensions of the murine eye and the high needle gauge, OPCs were consistently and reproducibly delivered into the vitreous cavity with this method, and transferred cells were imaged using fluorescent fundus imaging of the mouse eye (evidence from >30 mice; data not included) (FIG. 6A).
To measure the functional outcomes of OPC transplantation, VEPs were recorded. Intracranial supradural screw electrodes (plastics1.com 8L0X3905201F) were implanted over the visual cortex as described elsewhere (Deb et al., (2010) PLoS One 5:e12478) (FIG. 4I-4K). After dark adaptation, mice were placed in a recording chamber connected to a recording system (8200-K1-SE3, Pinnacle Technology) using an implanted EEG headmount (8235-SM, Pinnacle Tech) tethered to a preamplifier (8202-SE3, Pinnacle Tech) and an analog-to-digital converter. Mice were visually stimulated by an on-axis flashing LED. VEPs were recorded with varying stimulus blocks from 0.1 Hz to 1000 Hz (controlled via a programmable Arduino Diecimila). Recording parameters measured latency to N1 (the first negative peak following stimulation), amplitude range between Nmax-Pmax (first positive peak after stimulation), number of stimuli not followed by a response, duration of visual evoked response, pulse width of Pmax. Any delay in conduction velocity through the optic nerve increased time to N1, whereas axonal degeneration led to decrease in amplitude range, and an increase in response duration as well as increased pulse width due to non-synchronous firing of neurons, providing a very sensitive measure of optic nerve function.
Mice were subjected to electrode implantation surgery and either received OPC transplant or served as controls (FIGS. 7A-C), and visual evoked potential (VEP) averaging was used to establish measurements of evoked potential amplitude, latency, and peak pulse-width (FIG. 7D). Representative waveforms of VEP recordings in a healthy control animal (FIG. 7E), cuprizone-fed animal (FIG. 7F), and cuprizone-fed animal transplanted with OPCs (FIG. 7G). Latency was measured as the time from the visual stimulus to the first negative peak in the VEP impulse (FIG. 7H). An increased latency indicated decreased conduction velocity as a result of loss of myelin and Nodes of Ranvier. […] Peak width was measured as the duration of the first positive impulse at half-maximum amplitude. […]

murine optic nerves [2] = assay: PPD staining and electron microscopy of optic nerve sections, cuprizone demyelination and remyelination after OPC transplant; type: in vivo, mice
Experimental: as §1
For collection of optic nerves and brain tissue, mice were perfused with 4% paraformaldehyde or Trump's fixative, and CNS tissues were post-fixed in the respective solution for 24 hours.
Cuprizone is a copper chelator that causes apoptosis of mature oligodendroglia, followed by microglial recruitment and phagocytosis of myelin. Demyelination was induced by feeding mice a diet containing 0.3% cuprizone for 9 weeks. […] Peak demyelination occurs at 6-7 weeks with spontaneous remyelination occurring 2-4 weeks after transition to regular diet. […] Optical coherence tomography (OCT) provided quantitative assessment of neuroretinal integrity. The retinal layers measured along the green line in FIG. 4E in a healthy mouse (FIG. 4F). Note the clear retinal nerve fiber layer (RNFL), as outlined in FIG. 4H. The retinal layers measured along the yellow line in FIG. 4E in a healthy mouse (FIG. 4G). Note the thick ganglion cell layer (GCL), as outlined in FIG. 4H. Head mount surgery for placement of VEP electrodes and recording locations (FIG. 4I-K). Visual evoked potentials (VEPs) measured in the visual cortex induced by a 0.3 Hz light pulse (FIG. 4L). […] VEP averaging is used to establish measurements of evoked potential amplitude, latency, and pulse width (FIG. 4M). […]

murine optic nerves [3] = settings: mice on diet containing 0.3% cuprizone; cited from earlier work
[4] = 0.3 Hz stimulation frequency, cuprizone-fed animal compared to regular diet (FIG. 4N)

Structure (SMILES): O=C(NN=C1CCCCC1)C(=O)NN=C1CCCCC1 [cuprizone]
- failure to transmit impulses in VEP recording [1, 4]: increased failure to transmit impulses
- latency to N1 in VEP recording from visual cortex [1, 4]: increased latency to N1
- average latency (time from visual stimulus to first negative peak in the VEP impulse) ([1]; after cuprizone treatment for nine weeks, no transplant, healthy baseline 276 ms, n=5): 371 ms
- peak width, shortest half for peak width values ([1]; after demyelination with cuprizone, no transplant, n=5): increased
- number of missed responses ([1]; cuprizone-fed animals, no transplant, n=5): greatly increased
- optic nerve myelination, PPD staining of semi-thin sections (murine optic nerves [2]; after 6 weeks of cuprizone treatment): profound demyelination
- optic nerve myelination, PPD staining of semi-thin sections (murine optic nerves [2]; after 9 weeks of cuprizone treatment): profound demyelination
- myelin layers in electron micrographs of thin optic nerve cross sections (murine optic nerves [2]; cuprizone-treated animals, no transplant): thinning and disorganization of myelin layers; also recorded: thinning, and disorganization of myelin layers
- time of peak demyelination (murine optic nerves [3]): 6-7 weeks
